In experiment [1] the target is RET kinase (Homo sapiens, UniProt P07949). Nature of the experiment: RET Kinase Activity Assay. Type of experiment: biochemical. The conditions noted are these: test concentration not given. As for the experimental part: RET Kinase Activity Assay
The disclosed compounds were assayed for their ability to inhibit the activity of RET kinase. Nunc Maxwasorb plates were coated with streptavidin by overnight incubation with 100 μL per well of 1 μg/mL Streptavidin in DPBS. Prior to the start of the experiment, the plates were washed with TBST (3×200 μL) and blocked for at least 1 hour by adding 150 μL of 5% BSA/TBST. The plates were washed with TBST (3×200 μL/well) and left dry immediately before the capture step.
The test articles and controls (Staurosporine and Sutent) were prepared using the following assay buffer at 3× desired final concentration (50 mM […], 0.02 mg/mL BSA, 10 mM MgCl2, 0.1 mM Na3VO4, 1 mM EGTA, 75 μM ATP0.01% NP-40, 2 mM DTT in 10% glycerol/water). In a reaction plate, were added rapidly 20 μL test article (or control) and 20 μL RET (0.25 ng/μL final concentration). The plate was incubated for 15 minutes. To the reaction plate was added 20 μL of Pyk-2 (0.25 ng/μL final concentration). The plate was incubated at room temperature for one hour.
(§1) From the reaction plate, 50 μL was transferred to the streptavidin coated plate. The capture plate was incubated at room temperature for 30 minutes then washed 6× with TBST. To the capture plate was added 100 μL/well of Cell Signaling anti-phospho tyrosine at a dilution of 1:3000 in 2% BSA/TBST. The plate was incubated for one hour at room temperature then washed 6× with TBST. To the capture plate was added 100 μL/well of Alkaline Phosphatase Tagged Goat anti Mouse Antibody at a dilution of 1:4000 in 2% BSA/TBST. The plate was incubated for one hour at room temperature then washed 6× with TBST. The fluorescent readout was initiated by the addition of 100 μL/well of Attophos reagent (6 mg/10 mL). The reading was done on the Perkin Elmer Envwasion system.

Experiment [2] deals with T1, Tec kinase (Homo sapiens, UniProt P42680).
T1 sequence (P42680 1-631): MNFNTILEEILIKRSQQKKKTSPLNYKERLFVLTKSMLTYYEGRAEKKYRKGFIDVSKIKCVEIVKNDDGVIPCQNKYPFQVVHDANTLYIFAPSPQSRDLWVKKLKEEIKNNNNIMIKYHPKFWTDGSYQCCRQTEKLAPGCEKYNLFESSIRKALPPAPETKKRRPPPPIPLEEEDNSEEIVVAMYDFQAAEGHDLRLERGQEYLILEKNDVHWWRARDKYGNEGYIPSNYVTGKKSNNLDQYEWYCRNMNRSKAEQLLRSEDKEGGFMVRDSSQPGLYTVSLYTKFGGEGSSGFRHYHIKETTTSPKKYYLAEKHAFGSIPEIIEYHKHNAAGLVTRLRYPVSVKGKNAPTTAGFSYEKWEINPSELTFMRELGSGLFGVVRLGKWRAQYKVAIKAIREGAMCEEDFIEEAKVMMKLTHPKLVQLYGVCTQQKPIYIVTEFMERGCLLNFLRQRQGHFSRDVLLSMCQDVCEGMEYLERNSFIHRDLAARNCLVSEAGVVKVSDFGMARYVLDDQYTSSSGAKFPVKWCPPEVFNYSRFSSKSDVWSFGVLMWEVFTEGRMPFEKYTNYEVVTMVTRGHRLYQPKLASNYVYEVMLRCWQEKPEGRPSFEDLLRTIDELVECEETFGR
The experiment is described as follows: Tec Kinase Activity Assay. Type of experiment: biochemical. The conditions noted are these: test concentration not given. As for the experimental part: Tec Kinase Activity Assay
The disclosed compounds were assayed for their ability to inhibit the activity of Tec kinase. Nunc Maxisorb plates were coated with streptavidin by overnight incubation with 100 μL per well of 1 μg/mL Streptavidin in DPBS. Prior to the start of the experiment, the plates were washed with TBST (3×200 μL) and blocked for at least 1 hour by adding 150 μL of 5% BSA/TBST. The plates were washed with TBST (3×200 μL/well) and left dry immediately before the capture step.
The test articles and controls (Staurosporine and Sutent) were prepared using the following assay buffer at 3× desired final concentration (50 mM Tris-HCl, 0.02 mg/mL BSA, 10 mM MgCl2, 0.1 mM Na3VO4, 1 mM EGTA, 75 μM ATP0.01% NP-40, 2 mM DTT in 10% glycerol/water). In a reaction plate were added rapidly 20 μL test article (or control) and 20 μL TEC 0.25 ng/μL. The plate was incubated for 30 minutes. To the reaction plate was added 20 μL of Pyk-2 0.5 ng/μL. The plate was incubated at room temperature for two hours.
as §1, with “Envision” for “Envwasion”

In experiment [3] the test system is DLD-1 cancer cells. The experiment is described as follows: MTS Assay. The conditions noted are these: Homo sapiens, DLD-1 cells, 72 h. The class given is cell-based. The method, then:
Cells were maintained at 37° C., 5% CO2 in DMEM media supplemented with 1% fetal bovine serum, penicillin/streptomycin and fungizone (Invitrogen). Cells were seeded into 96-well tissue culture plates at 3000 per well and cultured at 37° C. for 18 hours. Test compounds were dissolved and diluted to 300× in DMSO then diluted 1:40 in DMEM. Cells were incubated with test compounds for 72 hours followed by incubation with tetrazolium compound (3-(4,5-dimethylthiazol-2-yl)-5-(3-carboxymethoxyphenyl)-2-(4-sulfophenyl)-2H-tetrazolium, inner salt; MTS) and the electron coupling reagent, phenazine methosulfate (PMS) for 4 hours. […] The ability of compounds to inhibit cell growth in this assay is correlated with the reduction of dehydrogenase enzyme activity found in metabolically active cells. The measurement of the absorbance of the formazan was assessed using a Victor (Perkin Elmer) microplate reader at 492 nm. The calculated IC50 value is the concentration of the test compound that causes a 50% decrease in the absorbance.

RET kinase, sequence (P07949 29-1114): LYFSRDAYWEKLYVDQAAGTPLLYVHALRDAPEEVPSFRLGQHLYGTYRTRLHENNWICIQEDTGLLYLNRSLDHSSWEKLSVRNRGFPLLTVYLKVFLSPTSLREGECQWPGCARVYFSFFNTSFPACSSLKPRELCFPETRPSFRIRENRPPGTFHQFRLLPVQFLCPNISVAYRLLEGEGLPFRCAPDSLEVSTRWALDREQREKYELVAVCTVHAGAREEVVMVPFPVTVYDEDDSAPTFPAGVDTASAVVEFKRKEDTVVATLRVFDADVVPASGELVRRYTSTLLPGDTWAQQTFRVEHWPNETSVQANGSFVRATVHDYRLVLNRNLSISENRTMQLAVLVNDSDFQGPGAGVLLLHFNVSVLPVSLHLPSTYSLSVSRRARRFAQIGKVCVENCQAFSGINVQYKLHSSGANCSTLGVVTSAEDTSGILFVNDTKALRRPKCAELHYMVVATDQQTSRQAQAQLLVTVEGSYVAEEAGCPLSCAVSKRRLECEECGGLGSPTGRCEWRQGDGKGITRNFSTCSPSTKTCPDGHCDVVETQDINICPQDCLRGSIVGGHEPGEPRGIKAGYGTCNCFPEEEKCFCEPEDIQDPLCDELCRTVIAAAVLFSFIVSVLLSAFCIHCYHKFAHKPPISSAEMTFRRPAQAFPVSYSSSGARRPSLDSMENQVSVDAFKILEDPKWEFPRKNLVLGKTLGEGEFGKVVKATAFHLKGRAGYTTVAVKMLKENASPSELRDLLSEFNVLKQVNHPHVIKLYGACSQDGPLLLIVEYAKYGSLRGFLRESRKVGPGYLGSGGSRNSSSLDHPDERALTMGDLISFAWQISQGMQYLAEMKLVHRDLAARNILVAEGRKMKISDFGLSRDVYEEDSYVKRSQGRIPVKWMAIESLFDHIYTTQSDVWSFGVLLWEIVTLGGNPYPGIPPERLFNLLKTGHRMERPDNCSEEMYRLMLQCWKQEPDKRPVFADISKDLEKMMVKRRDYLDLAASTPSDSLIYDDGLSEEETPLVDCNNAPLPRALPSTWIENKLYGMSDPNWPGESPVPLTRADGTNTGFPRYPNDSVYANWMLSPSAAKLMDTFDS

As to `CS(=O)(=O)c1ccc(-c2nnc3ncc(-c4ccccc4Oc4ccccc4)cn23)cc1` [Compound 11, 3-(4-(methylsulfonyl)phenyl)-6-(2-phenoxyphenyl)-[1,2,4]triazolo[4,3-a]pyrimidine], in experiment [1], the “Kinase Activity (RET kinase inhibition)” value is listed as “A (A indicates 75-100% inhibition)”.
On to `c1ccc(Oc2ccc(-c3cnc4nnc(-c5ccncc5)n4c3)cc2)cc1` [Compound 6, 6-(4-phenoxyphenyl)-3-(pyridin-4-yl)-[1,2,4]triazolo[4,3-a]pyrimidine], for which, in experiment [2], the “Kinase Activity (Tec kinase inhibition)” value was “A (A indicates 75-100% inhibition)”. For the same compound, in experiment [1], the “Kinase Activity (RET kinase inhibition)” value is listed as “A (A indicates 75-100% inhibition)”.
For the compound `c1ccc(Oc2ccccc2-c2cnc3nnc(-c4ccncc4)n3c2)cc1` [Compound 5, 6-(2-phenoxyphenyl)-3-(pyridin-4-yl)-[1,2,4]triazolo[4,3-a]pyrimidine], in experiment [2], the “Kinase Activity (Tec kinase inhibition)” value was “B (B indicates 50-75% inhibition)”. Besides, in experiment [1], the “Kinase Activity (RET kinase inhibition)” value is given as “B (B indicates 50-75% inhibition)”. In experiment [3], this compound returned an inhibition at 10 µM of 13%.
In the case of `c1cc(-c2cnc3nnc(-c4ccncc4)n3c2)c2cc[nH]c2c1` [Compound 4, 6-(1H-indol-4-yl)-3-(pyridin-4-yl)-[1,2,4]triazolo[4,3-a]pyrimidine], the “Kinase Activity (RET kinase inhibition)” value in experiment [1] is “A (A indicates 75-100% inhibition)”.
As for `c1ccc(-c2nnc3ncc(-c4cccc5[nH]ccc45)cn23)cc1` [Compound 3, 6-(1H-indol-4-yl)-3-phenyl-[1,2,4]triazolo[4,3-a]pyrimidine], the “Kinase Activity (Tec kinase inhibition)” value in experiment [2] is listed as “A (A indicates 75-100% inhibition)”. In experiment [1], the “Kinase Activity (RET kinase inhibition)” value is given as “A (A indicates 75-100% inhibition)”. In addition, the inhibition at 10 µM in experiment [3] stood at 98%.
On to `COc1ccc(-c2cnc3nnc(-c4ccc(CC(C)C)cc4)n3c2)cc1` [Compound 8, 3-(4-isobutylphenyl)-6-(4-methoxyphenyl)-[1,2,4]triazolo[4,3-a]pyrimidine], for which the “Kinase Activity (Tec kinase inhibition)” value in experiment [2] is reported as “B (B indicates 50-75% inhibition)”. This compound also showed an inhibition at 10 µM in experiment [3] of 74%.
On to `Brc1cnc2nnc(-c3ccccc3)n2c1` [Compound 1, 6-bromo-3-phenyl-[1,2,4]triazolo[4,3-a]pyrimidine], for which, in experiment [2], the “Kinase Activity (Tec kinase inhibition)” value is “A (A indicates 75-100% inhibition)”.
Consider `CC(C)(C)c1ccc(-c2cnc3nnc(-c4ccc(C#N)cc4)n3c2)cc1` [Compound 9, 4-(6-(4-tert-butylphenyl)-[1,2,4]triazolo[4,3-a]pyrimidin-3-yl)benzonitrile], for which the “Kinase Activity (Tec kinase inhibition)” value in experiment [2] was “B (B indicates 50-75% inhibition)”. Further, in experiment [1], the “Kinase Activity (RET kinase inhibition)” value was “A (A indicates 75-100% inhibition)”. This compound came in with an inhibition at 10 µM in experiment [3] of 39%.
With `Cc1ccc(-c2cnc3nnc(-c4ccc(S(C)(=O)=O)cc4)n3c2)c2ccccc12` [Compound 10, 6-(4-methylnaphthalen-1-yl)-3-(4-(methylsulfonyl)phenyl)-[1,2,4]triazolo[4,3-a]pyrimidine], in experiment [1], the “Kinase Activity (RET kinase inhibition)” value is on record as “A (A indicates 75-100% inhibition)”.
On to `Brc1cnc2nnc(-c3ccc(-c4cccnc4)cc3)n2c1` [Compound 2, 6-bromo-3-(4-(pyridin-3-yl)phenyl)-[1,2,4]triazolo[4,3-a]pyrimidine], for which the “Kinase Activity (Tec kinase inhibition)” value in experiment [2] is on record as “B (B indicates 50-75% inhibition)”.
Regarding `CS(=O)(=O)c1ccc(-c2nnc3ncc(-c4ccc(Oc5ccccc5)cc4)cn23)cc1` [Compound 7, 3-(4-(methylsulfonyl)phenyl)-6-(4-phenoxyphenyl)-[1,2,4]triazolo[4,3-a]pyrimidine], the “Kinase Activity (Tec kinase inhibition)” value in experiment [2] was “A (A indicates 75-100% inhibition)”. The “Kinase Activity (RET kinase inhibition)” value in experiment [1] was “A (A indicates 75-100% inhibition)”. In experiment [3], this compound displayed an inhibition at 10 µM of 98%.

The values above are taken from patent publication US8343977B2, “Substituted triazolo-pyrimidine compounds” (ArQule, Inc., priority 2009, dated 2013).
